# Tested on: HCC1143 p13 spheroid (TNBC, BL1 subtype, BRCA-1 wt)
# Experiment: TNBC spheroid model, residual cell viability by standard ATP assay
# Format: cell-based
# Details: for mean cell viability: mean of six repeats
# Description: The activity of EDO-S101 alone and in combination was evaluated in triple negative breast cancer (TNBC) cells lines using a spheroid model.
# Heterotypic tumour spheroids were prepared from the individual primary breast cancer tissue. The tumour samples were mechanically and enzymatically digested using an enzyme cocktail (Roche, Penzberg Germany), cell viability determined using the trypan-blue exclusion test, and spheroids seeded at a cell density of 50,000 using a modified liquid overlay method. After 48 h in cell culture under standard conditions, successful spheroid formation was documented photographically before starting treatment.
# The spheroids were treated with EDO-S101 (5 μM, 10 μM) alone and in combination with carboplatin and/or the PARP inhibitor olaparib (Table 2) for different periods of time (48, 72 h). Solvent controls and an untreated (medium) control was used under the same culture conditions. Treatment efficacy of all drugs was analysed with a standard ATP assay.
# The results are the mean of six repeats per treatment based on the results of the ATP assay.
# HCC1143 cells are from the BL1 triple negative breast cancer subtype.
compound,measurement,setting,value
"N.N.O=C([O-])C1(C(=O)[O-])CCC1.[Pt+2] [Carboplatin, reference compound]",mean cell viability,"HCC1143 p13 spheroids, T48 h, control agents: carboplatin 40.84 μg/ml, paclitaxel 1.53 μg/ml, olaparib 6.6 μg/ml",118.28 % solvent control
same,mean cell viability,"HCC1143 spheroids, T72 h, control agents: carboplatin 40.84 μg/ml, paclitaxel 1.53 μg/ml, olaparib 6.6 μg/ml",105.88 % solvent control
"Cn1c(CCCCCCC(=O)NO)nc2cc(N(CCCl)CCCl)ccc21 [EDO-S101, 7-(5-(bis(2-chloroethyl)amino)-1-methyl-1H-benzo[d]imidazol-2-yl)-N-hydroxyheptanamide]",mean cell viability,"HCC1143 p13 spheroids, T48 h, EDO S101 5 μM alone or with carboplatin 40.84 μg/ml and/or olaparib 6.6 μg/ml",85.75 % solvent control
same,mean cell viability,"HCC1143 p13 spheroids, T48 h, EDO S101 10 μM alone or with carboplatin 40.84 μg/ml and/or olaparib 6.6 μg/ml",57.43 % solvent control
same,mean cell viability,"HCC1143 spheroids, T72 h, EDO S101 5 μM alone or with carboplatin 40.84 μg/ml and/or olaparib 6.6 μg/ml",79.99 % solvent control
same,mean cell viability,"HCC1143 spheroids, T72 h, EDO S101 10 μM alone or with carboplatin 40.84 μg/ml and/or olaparib 6.6 μg/ml",77.09 % solvent control
same,residual cell viability,"HCC1143 spheroids, after 48 h, EDO-S101 5 μm (alone or in combination)",86%
same,residual cell viability,"HCC1143 spheroids, after 48 h, EDO-S101 10 μm",57%
"O=C(c1cc(Cc2n[nH]c(=O)c3ccccc23)ccc1F)N1CCN(C(=O)C2CC2)CC1 [Olaparib, reference compound]",residual cell viability,"human, 72 h",62%
